{
  "source": "paper PMC12326976",
  "about": "(Antimicrobial Agents and Chemotherapy, 2025)",
  "key": {"H3N2 virus": {"test_system": "H3N2 virus", "experiment": "Plaque assay, H3N2 in MDCK cells", "assay_type": "cell-based, influenza H3N2 virus", "details": "plaque number normalized to untreated virus, Fig. S2", "protocol": "The antiviral activity of peptides was measured by plaque reduction assay. Briefly, peptides were dissolved in PBS or 20% PBS. Peptides (0.2-25.0 µg mL^−1) were premixed with H1N1 virus at room temperature. After 30 min of incubation, the peptide-virus mixture was transferred to MDCK cells for infection at 37°C. At 1 hpi, infectious media were removed, and then 1% low melting agar was added to cells. Cells were fixed using 4% formalin at 2–3 dpi. […] (0.1%) was added to cells for cell staining to count viral plaques.\nFig. S2. The antiviral activity of 4H30 against H3N2 virus in MDCK cells. H3N2 virus was treated with the indicated concentrations of 4H30 to infect MDCK cells. The percentage (%) was the plaque number of virus treated with 4H30 normalized to virus without treatment (0)."}, "H1N1 virus [1]": {"test_system": "H1N1 virus", "experiment": "Viral attachment assay, H1N1 on MDCK cells", "assay_type": "cell-based, influenza H1N1 virus", "protocol": "(§1) Viruses (H1N1 or rhinovirus A1) were treated with DMEM, 4H30 (25 µg mL^−1), or an influenza neutralization antibody at room temperature for 30 min and then added to cells for attachment at 4°C for 1 h. After washing the unbound virus, the attached virus on cells was measured by RT-qPCR. At least two experiments with biological duplication samples were included for each treatment.\nMDCK cells were treated by ChABC (Sigma, Cat^# C2905, 1 U mL^−1), Hase I–III (Sigma, Cat^# H3917, 100 mU mL^−1), and Hase II (Sigma, Cat^# H6515, 100 mU mL^−1) at 37°C for 2 h in the buffer according to the manufacturer’s instruction. After washing cells with PBS, MEM or 4H30 (25 µg mL^−1) was added to cells for 30 min incubation, and then cells were washed with PBS. H1N1 (MOI = 1.0) was added to cells for attachment at 4°C for 1 h. The unbound virus was washed with PBS. The concentration of the attached virus was measured by RT-qPCR."}, "H1N1 virus [2]": {"test_system": "H1N1 virus", "assay_type": "cell-based, influenza H1N1 virus"}, "NA": {"test_system": "NA", "experiment": "ELISA binding assay, NA", "design": "species or system influenza virus", "details": "4H30 1 µg coated, NA 100 ng, anti-His antibody, Fig. 2a", "protocol": "(§2) Peptides (1.0 µg per well) were dissolved in H2O. Influenza HA, NA (Sino, Cat^# 11058-V07B), or LDLR (Sino, Cat^# 10231-H081-50, 100 ng) dissolved in PBS was coated onto ELISA plates, incubated at 4°C overnight, and blocked with BSA at 4°C overnight. HA or VP1 was added to wells for binding and then determined by incubation with goat anti-His-HRP (Invitrogen, Cat^# R93125, 1: 2,000) at 37°C for 30 min. The reaction was developed by adding 100 µL of the TMB single solution (Life Technologies, Cat^# 002023) for 15 min at 37°C and stopped with 50 µL of 1 M H2SO4. Readings were obtained in an ELISA plate reader (Victor 1420 Multilabel Counter; PerkinElmer) at 450 nm."}, "LDLR": {"molecular_target": "T1, LDLR (Homo sapiens, UniProt P01130)", "T1 construct": "His; purchased Sino 10231-H081-50", "T1 sequence (P01130 22-860)": "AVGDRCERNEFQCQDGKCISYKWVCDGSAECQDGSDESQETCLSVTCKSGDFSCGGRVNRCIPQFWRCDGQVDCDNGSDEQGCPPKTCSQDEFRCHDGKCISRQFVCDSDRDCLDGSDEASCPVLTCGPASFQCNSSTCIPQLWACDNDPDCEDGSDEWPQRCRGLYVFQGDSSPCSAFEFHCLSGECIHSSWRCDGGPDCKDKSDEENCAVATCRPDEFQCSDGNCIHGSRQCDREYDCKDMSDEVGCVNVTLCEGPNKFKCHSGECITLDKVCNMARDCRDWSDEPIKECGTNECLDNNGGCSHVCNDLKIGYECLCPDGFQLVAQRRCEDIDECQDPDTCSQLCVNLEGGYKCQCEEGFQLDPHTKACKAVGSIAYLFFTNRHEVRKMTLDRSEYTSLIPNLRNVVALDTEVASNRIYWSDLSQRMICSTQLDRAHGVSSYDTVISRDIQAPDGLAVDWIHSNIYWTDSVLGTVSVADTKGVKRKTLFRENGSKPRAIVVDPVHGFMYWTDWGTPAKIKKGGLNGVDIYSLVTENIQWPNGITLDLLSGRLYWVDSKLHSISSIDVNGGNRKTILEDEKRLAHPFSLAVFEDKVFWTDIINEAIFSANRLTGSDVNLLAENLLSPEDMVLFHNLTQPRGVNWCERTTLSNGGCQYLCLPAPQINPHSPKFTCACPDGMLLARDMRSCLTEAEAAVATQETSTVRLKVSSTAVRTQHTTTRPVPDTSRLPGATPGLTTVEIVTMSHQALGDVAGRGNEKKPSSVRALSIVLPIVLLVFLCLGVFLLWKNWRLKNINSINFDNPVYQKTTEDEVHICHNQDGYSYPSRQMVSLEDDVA", "experiment": "ELISA binding assay, LDLR", "details": "4H30 1.0 µg, 0.25 µg and 0 µg, Fig. 4g", "protocol": "as §2"}, "rhinovirus A1 [3]": {"test_system": "rhinovirus A1", "experiment": "Viral attachment assay, rhinovirus A1 on RD cells", "assay_type": "cell-based", "details": "virus treated with 4H30, attachment at 4°C, Fig. 4d", "protocol": "as §1"}, "rhinovirus A1 [4]": {"test_system": "rhinovirus A1", "experiment": "Rhinovirus A1 in H1-Hela cells", "assay_type": "cell-based", "details": "4H30 25 μg mL^−1, viral RNA copies in cells at 16 hpi, Fig. S6a", "protocol": "(§3) Fig. S6. […] H1-Hela cells are the standard cell model for efficient Rhinovirus A16 (RV-A16) replication. RV-A1 (a) or RV-A16 (b) was treated with 4H30 (25 μg mL^−1) for one hour of infection and then the infectious media were replaced with MEM with 4H30 for viral culture. Viral RNA copies in cells were measured at 16 hpi. Virus in MEM was the control. No viral infection was the mock control. Data are presented as mean ± SD of indicated biological samples."}, "rhinovirus A16": {"test_system": "rhinovirus A16", "experiment": "Rhinovirus A16 in H1-Hela cells", "assay_type": "cell-based", "details": "4H30 25 μg mL^−1, viral RNA copies in cells at 16 hpi, Fig. S6b", "protocol": "as §3"}, "rhinovirus A1 [5]": {"test_system": "rhinovirus A1", "experiment": "Anti-rhinovirus assay in cardiomyocytes (hIPSC-CMs)", "assay_type": "cell-based", "details": "4H30 25 µg mL^−1; supernatants at 48 hpi; compared to DMEM- and P9RS-treated controls; Fig. 5d", "description": "Cardiomyocytes are generated from human-induced pluripotent stem cells (iPSCs) as we had previously published ([22], [23]). Initially, IMR90 iPSCs are maintained in 12-well plates pre-coated with Matrigel (Thermo Fisher Scientific, USA) using StemFlex Medium (Thermo Fisher Scientific, USA). Subsequently, differentiation into cardiomyocytes is induced with the STEMdiff Ventricular Cardiomyocyte Differentiation Kit (Stem Cell Technologies, USA). This involves the sequential addition of Supplement A from days 1 to 2, Supplement B from days 3 to 4, and Supplement C from days 5 to 8 to cardiomyocyte differentiation basal medium. From day 9 onward, cardiomyocytes are sustained in cardiomyocyte maintenance basal medium with supplement (Stem Cell Technologies, USA). Lactate purification of cardiomyocytes is performed on days 11 to 12. Standard immunofluorescence staining with α-actinin and electrophysiology analysis by the patch clamping technique was performed to confirm their cardiomyocyte phenotype. To infect the cells, Rhinovirus A1 (0.025 TCID50) was treated with or without peptide in the media for infection. […]\nFig 5 4H30 inhibited rhinovirus replication in nasal organoids and cardiomyocytes. […] Viral RNAs were measured on day 1, day 2, and day 3 post-infection. […] Viral RNAs in the cell supernatants were measured by RT-qPCR at the indicated time points. […]"}, "[6]": {"test_system": "HA-mediated cell-cell fusion (pH7N7-HA)", "details": "125 µg mL^−1, 293T cells, pH 5.0, Fig. 2b"}, "[7]": {"details": "mouse, in vivo; cited from earlier work"}},
  "note": "Bridge positions count the residues as written; N and C are the ends. Ends that are not written are not given here. I, II: the chains in the order shown.",
  "data": [
    {"substance": "I: GAICHPVFCPRRYKQIGTCGLPGTKCCKKPKK / II: GAICHPVFCPRRYKQIGTCGLPGTKCCKKPK / III: GAICHPVFCPRRYKQIGTCGLPGTKCCKKP / IV: GAICHPVFCPRRYKQIGTCGLPGTKCCKKP (amide I:31-IV:C, I:32-II:C, II:31-III:C; cysteines drawn unpaired) [4H30]", "values": [
      {"measurement": "inhibition of H3N2 virus infection", "setting": "H3N2 virus", "result": "significantly inhibited group 2 influenza H3N2 virus infection"},
      {"measurement": "H1N1 attachment to MDCK cells", "setting": "H1N1 virus [1]; 4H30 25 µg mL^−1, attachment at 4°C, RT-qPCR, Fig. 1d", "result": "increased the viral attachment to cells"},
      {"measurement": "4H30-induced increase in H1N1 attachment after removal of cellular GAGs", "setting": "H1N1 virus [1]; MDCK cells treated with Hase and ChABC, 4H30 25 µg mL^−1, attachment at 4°C, Fig. 2d", "result": "significantly reduced when cells were treated with enzymes of Hase and ChABC"},
      {"measurement": "H1N1 viral release, supernatant virus at 8 hpi", "setting": "H1N1 virus [2]", "result": "significantly inhibited H1N1 viral release from cells"},
      {"measurement": "H1N1 viral release, supernatant virus at 18 hpi", "setting": "H1N1 virus [2]", "result": "inhibited viral release at 18 hpi"},
      {"measurement": "inhibition of viral release after removal of GAGs", "setting": "H1N1 virus [2]", "result": "removal of GAGs reduced the activity of 4H30 in inhibiting viral release"},
      {"measurement": "viral HA on cell membrane, anti-HA staining at 18 hpi", "setting": "H1N1 virus [2]", "result": "more viral HA was detected on the cell membrane"},
      {"measurement": "binding to NA", "setting": "NA", "result": "not effectively bound to NA"},
      {"measurement": "binding to LDLR", "setting": "LDLR", "result": "bound to the LDLR receptor of rhinovirus"},
      {"measurement": "rhinovirus attachment to RD cells", "setting": "rhinovirus A1 [3]", "result": "reduced rhinovirus attachment to RD cells"},
      {"measurement": "inhibition of rhinovirus A1 in H1-Hela cells", "setting": "rhinovirus A1 [4]", "result": "inhibited rhinovirus A1 in H1-Hela cells"},
      {"measurement": "inhibition of rhinovirus A16 in H1-Hela cells", "setting": "rhinovirus A16", "result": "did not show antiviral activity against rhinovirus A16"},
      {"measurement": "rhinovirus replication in hIPSC-CMs", "setting": "rhinovirus A1 [5]", "result": "significantly inhibited viral replication in hIPSC-CMs"},
      {"measurement": "inhibition of HA-mediated cell-cell fusion induced by low pH", "setting": "[6]", "result": "did not effectively block HA-mediated cell-cell fusion"},
      {"measurement": "toxicity in mice", "setting": "[7]", "result": "without causing apparent toxicity"}
    ]}
  ]
}
